This is an account of results in patent publication US20260070945A1, “MACROCYCLIC IMMUNOMODULATORS” (Bristol-Myers Squibb Company, priority 2022, published 2026).

The structures appear in SMILES notation. Where a SMILES comes first, the peptide text is derived from it. Bridges are numbered along the chain shown (N, C = ends). [ ]: non-standard residue; d: D form. The star is where a group is joined. ξ: configuration not given here. Phe(4-COOH) = N[C@@H](Cc1ccc(C(=O)O)cc1)C(=O)O; Bip = N[C@@H](Cc1ccc(-c2ccccc2)cc1)C(=O)O; hArg = N=C(N)NCCCC[C@H](N)C(=O)O; 4Pal = N[C@@H](Cc1ccncc1)C(=O)O; Cha = N[C@@H](CC1CCCCC1)C(=O)O; Ile(3ξ) = CCC(C)[C@H](N)C(=O)O; Thr(3ξ) = CC(O)[C@H](N)C(=O)O; Carboxymethyl = O=C(O)C*; NMeA = CN[C@@H](C)C(=O)O; Orn = NCCC[C@H](N)C(=O)O; dDap = NC[C@@H](N)C(=O)O; Aun = NCCCCCCCCCCC(=O)O; Dab = NCC[C@H](N)C(=O)O; Dap = NC[C@H](N)C(=O)O; AEEA = NCCOCCOCC(=O)O

For this assay, the target named is T1, PD-1/PD-L1 interaction (PE-labeled human PD-L1-Ig binding to Jurkat cell line over-expressing human PD-1) (Homo sapiens, UniProt Q15116).
T1 construct: expressed in transfected cells; host or cells: Jurkat
T1 sequence (Q15116 25-288): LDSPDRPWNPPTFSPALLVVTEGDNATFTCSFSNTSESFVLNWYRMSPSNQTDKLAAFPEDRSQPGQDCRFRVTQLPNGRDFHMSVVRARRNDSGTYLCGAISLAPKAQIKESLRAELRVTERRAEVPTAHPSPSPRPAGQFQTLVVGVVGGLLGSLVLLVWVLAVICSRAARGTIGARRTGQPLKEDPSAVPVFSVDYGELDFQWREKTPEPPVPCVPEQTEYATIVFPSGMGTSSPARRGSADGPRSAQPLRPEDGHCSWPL
Put plainly: Jurkat-PD-1 Cell Binding High-Content Screening Assay (CBA). To be noted: Jurkat-hPD-1 cells, PE-labeled PD-L1-Ig 20 nM final; read-out: Jurkat HPD1 PDL1 IC50. A digest of the protocol: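 Jurkat cells overexpressing human PD-1 (8×10^3/well, DMEM + 10% FCS) preincubated with compound 2 h at 37 °C, then PE-labelled human PD-L1-Ig (20 nM final) for 1 h. Cells fixed in paraformaldehyde with Hoechst 33342; bound PD-L1 quantified by high-content imaging.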
What is called IC50 is the midpoint of a concentration-inhibition curve. Turning to `CCC(C)[C@@H]1NC(=O)[C@H](Cc2ccc(-c3ccccc3)cc2)NC(=O)[C@H](C(C)C)NC(=O)[C@H](Cc2c[nH]c3ccccc23)NC(=O)[C@H](CC(=O)O)NC(=O)[C@H](Cc2ccc(O)cc2)NC(=O)[C@H](Cc2ccncc2)NC(=O)CSC[C@@H](C(=O)N[C@H](CN)C(=O)NCCOCCOCC(=O)NCCCCCCCCCCC(=O)O)NC(=O)[C@H](C(C)O)NC(=O)[C@H](C(C)C)NC(=O)[C@H](CC2CCCCC2)NC(=O)[C@H](CCN)NC(=O)[C@@H](CC(C)C)NC(=O)[C@H](C)N(C)C1=O` (stereo partly drawn) [Example 2071] ({CH2CO}-[4Pal]YDWV[Bip][Ile(3ξ)][NMeA][dL][Dab][Cha]V[Thr(3ξ)]C[dDap][AEEA][Aun]-OH; thioether N-14), the IC50 was found to be 20.2 nM. On to `CCC(C)[C@@H]1NC(=O)[C@H](Cc2ccc(-c3ccccc3)cc2)NC(=O)[C@H](CC(C)C)NC(=O)[C@H](Cc2c[nH]c3ccccc23)NC(=O)[C@H](CC(=O)O)NC(=O)[C@H](Cc2ccc(O)cc2)NC(=O)[C@H](CC(N)=O)NC(=O)CSC[C@@H](C(=O)N[C@@H](C)C(=O)NCCOCCOCC(=O)NCCCCCCCCCCC(=O)O)NC(=O)[C@H](CO)NC(=O)[C@H](C(C)C)NC(=O)[C@H](CC2CCCCC2)NC(=O)[C@H](CCN)NC(=O)[C@@H](CC(C)C)NC(=O)[C@H](C)N(C)C1=O` (stereo partly drawn) [Example 2072] ({CH2CO}-NYDWL[Bip][Ile(3ξ)][NMeA][dL][Dab][Cha]VSCA[AEEA][Aun]-OH; thioether N-14), for which the IC50 came out at 25.4 nM. Turning to `CCC(C)[C@@H]1NC(=O)[C@H](Cc2ccc(-c3ccccc3)cc2)NC(=O)[C@H](CC(C)C)NC(=O)[C@H](Cc2c[nH]c3ccccc23)NC(=O)[C@H](CC(=O)O)NC(=O)[C@H](Cc2ccc(O)cc2)NC(=O)[C@H](Cc2ccncc2)NC(=O)CSC[C@@H](C(=O)N[C@@H](CCCN)C(=O)NCCOCCOCC(=O)NCCCCCCCCCCC(=O)O)NC(=O)[C@H](CO)NC(=O)[C@H](C(C)C)NC(=O)[C@H](CC2CCCCC2)NC(=O)[C@H](CCN)NC(=O)[C@@H](CC(C)C)NC(=O)[C@H](C)N(C)C1=O` (stereo partly drawn) [Example 2073] ({CH2CO}-[4Pal]YDWL[Bip][Ile(3ξ)][NMeA][dL][Dab][Cha]VSC[Orn][AEEA][Aun]-OH; thioether N-14), the IC50 is 44 nM. In the case of `CCC(C)[C@@H]1NC(=O)[C@H](Cc2ccc(-c3ccccc3)cc2)NC(=O)[C@H](CC(C)C)NC(=O)[C@H](Cc2c[nH]c3ccccc23)NC(=O)[C@H](CC(=O)O)NC(=O)[C@H](Cc2ccc(C(=O)O)cc2)NC(=O)[C@H](Cc2ccc(OCC(=O)O)cc2)NC(=O)CSC[C@@H](C(=O)NCCOCCOCC(=O)N[C@@H](CN)C(=O)NCCCCCCCCCCC(=O)O)NC(=O)[C@H](CO)NC(=O)[C@H](C(C)C)NC(=O)[C@H](CC2CCCCC2)NC(=O)[C@H](CCN)NC(=O)[C@@H](CC(C)C)NC(=O)[C@H](C)N(C)C1=O` (stereo partly drawn) [Example 2074] ({CH2CO}-Y(Carboxymethyl)[Phe(4-COOH)]DWL[Bip][Ile(3ξ)][NMeA][dL][Dab][Cha]VSC[AEEA][Dap][Aun]-OH; thioether N-14) it was 9.9 nM; in that of `CCC(C)[C@@H]1NC(=O)[C@H](Cc2ccc(-c3ccccc3)cc2)NC(=O)[C@H](CC(C)C)NC(=O)[C@H](Cc2c[nH]c3ccccc23)NC(=O)[C@H](CC(=O)O)NC(=O)[C@H](Cc2ccc(C(=O)O)cc2)NC(=O)[C@H](Cc2ccc(OCC(=O)O)cc2)NC(=O)CSC[C@@H](C(=O)N[C@@H](CC(N)=O)C(=O)NCCOCCOCC(=O)N[C@@H](CN)C(=O)NCCCCCCCCCCC(=O)O)NC(=O)[C@H](CO)NC(=O)[C@H](C(C)C)NC(=O)[C@H](CC2CCCCC2)NC(=O)[C@H](CCN)NC(=O)[C@@H](CC(C)C)NC(=O)[C@H](C)N(C)C1=O` (stereo partly drawn) [Example 2075] ({CH2CO}-Y(Carboxymethyl)[Phe(4-COOH)]DWL[Bip][Ile(3ξ)][NMeA][dL][Dab][Cha]VSCN[AEEA][Dap][Aun]-OH; thioether N-14), 15.5 nM. Consider `CCC(C)[C@@H]1NC(=O)[C@H](Cc2ccc(-c3ccccc3)cc2)NC(=O)[C@H](CC(C)C)NC(=O)[C@H](Cc2c[nH]c3ccccc23)NC(=O)[C@H](CC(=O)O)NC(=O)[C@H](Cc2ccc(O)cc2)NC(=O)[C@H](CC(N)=O)NC(=O)CSC[C@@H](C(=O)N[C@@H](C)C(=O)NCCOCCOCC(=O)N[C@@H](CCCN)C(=O)NCCCCCCCCCCC(=O)O)NC(=O)[C@H](CO)NC(=O)[C@H](C(C)C)NC(=O)[C@H](CC2CCCCC2)NC(=O)[C@H](CC(N)=O)NC(=O)[C@@H](CC(C)C)NC(=O)[C@H](C)N(C)C1=O` (stereo partly drawn) [Example 2076] ({CH2CO}-NYDWL[Bip][Ile(3ξ)][NMeA][dL]N[Cha]VSCA[AEEA][Orn][Aun]-OH; thioether N-14), for which the IC50 came to 54.3 nM. In the case of `CCC(C)[C@@H]1NC(=O)[C@H](Cc2ccc(-c3ccccc3)cc2)NC(=O)[C@H](C(C)C)NC(=O)[C@H](Cc2c[nH]c3ccccc23)NC(=O)[C@H](CC(=O)O)NC(=O)[C@H](Cc2ccc(O)cc2)NC(=O)[C@H](Cc2ccncc2)NC(=O)CSC[C@@H](C(=O)N[C@@H](C)C(=O)NCCOCCOCC(=O)N[C@@H](CCCN)C(=O)NCCCCCCCCCCC(=O)O)NC(=O)[C@H](C(C)O)NC(=O)[C@H](C(C)C)NC(=O)[C@H](CC2CCCCC2)NC(=O)[C@H](CCN)NC(=O)[C@@H](CC(C)C)NC(=O)[C@H](C)N(C)C1=O` (stereo partly drawn) [Example 2077] ({CH2CO}-[4Pal]YDWV[Bip][Ile(3ξ)][NMeA][dL][Dab][Cha]V[Thr(3ξ)]CA[AEEA][Orn][Aun]-OH; thioether N-14) it was 14.1 nM; in that of `CCC(C)[C@@H]1NC(=O)[C@H](Cc2ccc(-c3ccccc3)cc2)NC(=O)[C@H](C(C)C)NC(=O)[C@H](Cc2c[nH]c3ccccc23)NC(=O)[C@H](CC(=O)O)NC(=O)[C@H](Cc2ccc(O)cc2)NC(=O)[C@H](Cc2ccncc2)NC(=O)CSC[C@@H](C(=O)N[C@@H](CC(N)=O)C(=O)NCCOCCOCC(=O)N[C@@H](CCCN)C(=O)NCCCCCCCCCCC(=O)O)NC(=O)[C@H](CO)NC(=O)[C@H](C(C)C)NC(=O)[C@H](CC2CCCCC2)NC(=O)[C@H](CCN)NC(=O)[C@@H](CC(C)C)NC(=O)[C@H](C)N(C)C1=O` (stereo partly drawn) [Example 2078] ({CH2CO}-[4Pal]YDWV[Bip][Ile(3ξ)][NMeA][dL][Dab][Cha]VSCN[AEEA][Orn][Aun]-OH; thioether N-14), 12.2 nM. In the case of `CCC(C)[C@@H]1NC(=O)[C@H](Cc2ccc(-c3ccccc3)cc2)NC(=O)[C@H](CC(C)C)NC(=O)[C@H](Cc2c[nH]c3ccccc23)NC(=O)[C@H](CC(=O)O)NC(=O)[C@H](Cc2ccc(C(=O)O)cc2)NC(=O)[C@H](Cc2ccc(OCC(=O)O)cc2)NC(=O)CSC[C@@H](C(=O)N[C@@H](CC(N)=O)C(=O)NCCOCCOCC(=O)N[C@@H](CCN)C(=O)NCCCCCCCCCCC(=O)O)NC(=O)[C@H](CO)NC(=O)[C@H](C(C)C)NC(=O)[C@H](CC2CCCCC2)NC(=O)[C@H](CCN)NC(=O)[C@@H](CC(C)C)NC(=O)[C@H](C)N(C)C1=O` (stereo partly drawn) [Example 2079] ({CH2CO}-Y(Carboxymethyl)[Phe(4-COOH)]DWL[Bip][Ile(3ξ)][NMeA][dL][Dab][Cha]VSCN[AEEA][Dab][Aun]-OH; thioether N-14), the IC50 came out at 11.3 nM.

Regarding `CCC(C)[C@@H]1NC(=O)[C@H](CC(C)C)NC(=O)[C@H](CCN)NC(=O)[C@@H](CC(C)C)NC(=O)[C@H](C)N(C)C(=O)[C@H](C(C)CC)NC(=O)[C@H](Cc2ccc(-c3ccccc3)cc2)NC(=O)[C@H](C(C)CC)NC(=O)[C@H](Cc2c[nH]c3ccccc23)NC(=O)[C@H](CC(=O)O)NC(=O)[C@H](Cc2ccc(OCC(=O)O)cc2)NC(=O)[C@H](C(C)O)NC(=O)CSC[C@@H](C(=O)N[C@H](CC(N)=O)C(=O)NCCOCCOCC(=O)NCCCCCCCCCCC(=O)O)NC(=O)[C@H](CO)NC1=O` (stereo partly drawn) [Example 2080] ({CH2CO}-[Thr(3ξ)]Y(Carboxymethyl)DW[Ile(3ξ)][Bip][Ile(3ξ)][NMeA][dL][Dab]L[Ile(3ξ)]SC[dN][AEEA][Aun]-OH; thioether N-14), the IC50 was 110 nM. In the case of `CCC(C)[C@@H]1NC(=O)[C@H](CC(C)C)NC(=O)[C@H](CCN)NC(=O)[C@@H](CC(C)C)NC(=O)[C@H](C)N(C)C(=O)[C@H](C(C)CC)NC(=O)[C@H](Cc2ccc(-c3ccccc3)cc2)NC(=O)[C@H](C(C)CC)NC(=O)[C@H](Cc2c[nH]c3ccccc23)NC(=O)[C@H](CC(=O)O)NC(=O)[C@H](Cc2ccc(OCC(=O)O)cc2)NC(=O)[C@H](C(C)O)NC(=O)CSC[C@@H](C(=O)N[C@@H](CN)C(=O)NCCOCCOCC(=O)NCCCCCCCCCCC(=O)O)NC(=O)[C@H](CO)NC1=O` (stereo partly drawn) [Example 2081] ({CH2CO}-[Thr(3ξ)]Y(Carboxymethyl)DW[Ile(3ξ)][Bip][Ile(3ξ)][NMeA][dL][Dab]L[Ile(3ξ)]SC[Dap][AEEA][Aun]-OH; thioether N-14) it was 206 nM; in that of `CCC(C)[C@@H]1NC(=O)[C@H](CC(C)C)NC(=O)[C@H](CCN)NC(=O)[C@@H](CC(C)C)NC(=O)[C@H](C)N(C)C(=O)[C@H](C(C)CC)NC(=O)[C@H](Cc2ccc(-c3ccccc3)cc2)NC(=O)[C@H](C(C)CC)NC(=O)[C@H](Cc2c[nH]c3ccccc23)NC(=O)[C@H](CC(=O)O)NC(=O)[C@H](Cc2ccc(OCC(=O)O)cc2)NC(=O)[C@H](C(C)O)NC(=O)CSC[C@@H](C(=O)N[C@H](CC(N)=O)C(=O)NCCOCCOCC(=O)N[C@@H](CCCN)C(=O)NCCCCCCCCCCC(=O)O)NC(=O)[C@H](CO)NC1=O` (stereo partly drawn) [Example 2082] ({CH2CO}-[Thr(3ξ)]Y(Carboxymethyl)DW[Ile(3ξ)][Bip][Ile(3ξ)][NMeA][dL][Dab]L[Ile(3ξ)]SC[dN][AEEA][Orn][Aun]-OH; thioether N-14), 169 nM; in that of `CC(C)C[C@H]1NC(=O)[C@H](C)N(C)C(=O)[C@H](C(C)C)NC(=O)[C@H](Cc2ccc(-c3ccccc3)cc2)NC(=O)[C@H](C(C)C)NC(=O)[C@H](Cc2c[nH]c3ccccc23)NC(=O)[C@H](CC(=O)O)NC(=O)[C@H](Cc2ccc(OCC(=O)O)cc2)NC(=O)[C@H](CCCCNC(=N)N)NC(=O)CSC[C@@H](C(=O)NCC(=O)NCCOCCOCC(=O)N[C@@H](CCCN)C(=O)NCCCCCCCCCCC(=O)O)NC(=O)[C@H](CO)NC(=O)[C@H](C(C)C)NC(=O)[C@H](CC2CCCCC2)NC(=O)[C@H](CCN)NC1=O` [Example 2084] ({CH2CO}-[hArg]Y(Carboxymethyl)DWV[Bip]V[NMeA][dL][Dab][Cha]VSCG[AEEA][Orn][Aun]-OH; thioether N-14), 9.5 nM.
